Data on eight molecules can be found in patent publication EP4745135A1 (Gluetacs Therapeutics (Shanghai) Co., Ltd., priority 2023, dated 2025).

In one assay the test system is GSPT1. Put plainly: Western blot, degradation of substrate protein in hPBMCs. The assay is classed as cell-based, Human. The settings on record: Western blot, 24 hours of compound treatment, compounds tested at 50 nM and 500 nM (concentration for the table not stated).
The target in a further assay is T1, WEE1 (Homo sapiens, UniProt P30291+Q96SW2).
T1 construct: effects of the compounds of the present disclosure on the expression of target proteins in cells; endogenous in cells; host or cells: human PBMCs (Milecell Biotechnologies)
T1 sequence (P30291 whole entry): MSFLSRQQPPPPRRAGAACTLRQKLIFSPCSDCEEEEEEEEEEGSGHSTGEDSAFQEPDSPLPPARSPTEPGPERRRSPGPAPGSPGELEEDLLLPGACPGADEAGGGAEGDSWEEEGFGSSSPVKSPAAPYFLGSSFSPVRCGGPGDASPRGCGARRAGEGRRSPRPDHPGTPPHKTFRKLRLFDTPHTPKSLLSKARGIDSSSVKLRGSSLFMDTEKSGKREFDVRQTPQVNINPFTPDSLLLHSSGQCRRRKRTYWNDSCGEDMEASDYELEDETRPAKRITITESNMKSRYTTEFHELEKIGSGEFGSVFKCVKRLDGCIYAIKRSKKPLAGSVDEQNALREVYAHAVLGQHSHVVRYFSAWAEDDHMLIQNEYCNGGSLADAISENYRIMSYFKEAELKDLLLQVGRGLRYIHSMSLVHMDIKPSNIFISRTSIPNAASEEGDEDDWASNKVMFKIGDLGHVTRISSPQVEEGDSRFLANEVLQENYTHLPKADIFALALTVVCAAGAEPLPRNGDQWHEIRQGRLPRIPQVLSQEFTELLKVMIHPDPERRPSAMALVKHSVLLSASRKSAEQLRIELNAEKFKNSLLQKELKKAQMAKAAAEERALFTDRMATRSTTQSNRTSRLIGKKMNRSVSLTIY
T1 sequence (Q96SW2 whole entry): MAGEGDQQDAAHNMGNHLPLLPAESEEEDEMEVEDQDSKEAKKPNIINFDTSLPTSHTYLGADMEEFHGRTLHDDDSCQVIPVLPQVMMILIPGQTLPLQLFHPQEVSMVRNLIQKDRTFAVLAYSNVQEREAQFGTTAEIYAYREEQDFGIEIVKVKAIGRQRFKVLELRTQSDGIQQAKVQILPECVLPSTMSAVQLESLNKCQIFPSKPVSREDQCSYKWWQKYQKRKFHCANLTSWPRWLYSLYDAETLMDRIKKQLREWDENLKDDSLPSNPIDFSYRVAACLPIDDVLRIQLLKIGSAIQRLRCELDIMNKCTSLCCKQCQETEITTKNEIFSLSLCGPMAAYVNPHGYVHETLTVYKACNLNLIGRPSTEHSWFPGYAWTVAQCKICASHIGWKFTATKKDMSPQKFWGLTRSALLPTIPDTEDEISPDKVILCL
T1 sequence (Q16531 whole entry partner): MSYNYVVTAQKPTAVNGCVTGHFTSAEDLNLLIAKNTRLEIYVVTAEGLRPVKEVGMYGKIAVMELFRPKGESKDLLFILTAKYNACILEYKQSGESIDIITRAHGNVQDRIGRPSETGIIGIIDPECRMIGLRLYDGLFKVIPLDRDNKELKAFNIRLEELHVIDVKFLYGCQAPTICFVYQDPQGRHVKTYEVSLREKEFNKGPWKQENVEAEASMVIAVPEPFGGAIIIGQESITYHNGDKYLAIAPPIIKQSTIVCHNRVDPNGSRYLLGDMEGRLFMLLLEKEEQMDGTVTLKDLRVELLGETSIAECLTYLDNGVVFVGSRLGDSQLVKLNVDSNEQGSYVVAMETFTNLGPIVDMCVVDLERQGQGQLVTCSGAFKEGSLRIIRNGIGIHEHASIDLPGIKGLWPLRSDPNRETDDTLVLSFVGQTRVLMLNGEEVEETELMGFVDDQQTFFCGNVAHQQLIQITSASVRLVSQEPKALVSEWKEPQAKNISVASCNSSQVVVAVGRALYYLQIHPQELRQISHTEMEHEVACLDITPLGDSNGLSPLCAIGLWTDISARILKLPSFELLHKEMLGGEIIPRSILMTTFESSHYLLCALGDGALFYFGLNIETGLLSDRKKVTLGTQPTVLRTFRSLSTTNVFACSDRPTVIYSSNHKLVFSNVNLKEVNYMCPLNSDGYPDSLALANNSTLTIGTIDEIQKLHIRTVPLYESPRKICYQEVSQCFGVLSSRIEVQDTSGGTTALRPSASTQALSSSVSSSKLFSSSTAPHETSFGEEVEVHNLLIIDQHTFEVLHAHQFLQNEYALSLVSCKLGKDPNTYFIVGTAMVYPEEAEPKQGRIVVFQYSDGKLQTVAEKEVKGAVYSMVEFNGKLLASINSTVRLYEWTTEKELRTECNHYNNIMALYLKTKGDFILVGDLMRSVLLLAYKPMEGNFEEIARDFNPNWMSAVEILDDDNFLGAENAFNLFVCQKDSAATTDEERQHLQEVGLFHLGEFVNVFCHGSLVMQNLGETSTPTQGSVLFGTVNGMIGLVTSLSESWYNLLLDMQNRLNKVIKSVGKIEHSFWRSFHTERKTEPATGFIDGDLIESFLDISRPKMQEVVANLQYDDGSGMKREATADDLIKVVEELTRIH
The description is as above. In kind it is cell-based. The settings on record: Western blot, 24 hours of compound treatment, compounds tested at 50 nM and 500 nM (concentration for the table not stated).

The target in another assay is T2, CK1α (Homo sapiens, UniProt P48729+Q96SW2).
T2 construct: effects of the compounds of the present disclosure on the expression of target proteins in cells; endogenous in cells; host or cells: human PBMCs (Milecell Biotechnologies)
T2 sequence (P48729 whole entry): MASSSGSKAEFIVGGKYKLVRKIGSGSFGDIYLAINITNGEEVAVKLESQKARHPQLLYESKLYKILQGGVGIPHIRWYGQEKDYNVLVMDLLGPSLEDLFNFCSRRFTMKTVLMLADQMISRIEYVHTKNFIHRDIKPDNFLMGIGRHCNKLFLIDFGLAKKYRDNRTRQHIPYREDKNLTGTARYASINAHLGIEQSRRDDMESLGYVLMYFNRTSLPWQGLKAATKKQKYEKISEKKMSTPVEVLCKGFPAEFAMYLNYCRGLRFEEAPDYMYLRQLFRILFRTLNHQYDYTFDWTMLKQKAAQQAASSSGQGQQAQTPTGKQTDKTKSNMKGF
T2 sequence (Q96SW2 whole entry): as the sequence (Q96SW2 whole entry) above
T2 sequence (Q16531 whole entry partner): as the sequence (Q16531 whole entry partner) above
The assay is described as above. The assay is classed as cell-based. As to conditions: Western blot, 24 hours of compound treatment, compounds tested at 50 nM and 500 nM (concentration for the table not stated).

In another assay the target is T3, IKZF2 (Homo sapiens, UniProt Q96SW2+Q9UKS7).
T3 construct: effects of the compounds of the present disclosure on the expression of target proteins in cells; endogenous in cells; host or cells: human PBMCs (Milecell Biotechnologies)
T3 sequence (Q9UKS7 whole entry): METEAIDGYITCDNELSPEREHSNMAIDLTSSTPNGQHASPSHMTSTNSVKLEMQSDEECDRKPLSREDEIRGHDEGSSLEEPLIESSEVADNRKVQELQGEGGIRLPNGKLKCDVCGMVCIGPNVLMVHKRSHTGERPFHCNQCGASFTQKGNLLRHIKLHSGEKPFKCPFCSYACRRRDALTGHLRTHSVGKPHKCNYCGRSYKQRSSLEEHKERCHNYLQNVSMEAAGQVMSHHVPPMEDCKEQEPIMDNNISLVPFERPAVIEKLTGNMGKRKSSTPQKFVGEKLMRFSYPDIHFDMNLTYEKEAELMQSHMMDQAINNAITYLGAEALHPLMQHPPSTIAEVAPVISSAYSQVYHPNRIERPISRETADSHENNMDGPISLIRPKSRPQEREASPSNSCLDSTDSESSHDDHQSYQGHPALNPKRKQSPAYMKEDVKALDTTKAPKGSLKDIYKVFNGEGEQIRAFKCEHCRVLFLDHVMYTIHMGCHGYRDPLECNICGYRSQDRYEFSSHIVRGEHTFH
T3 sequence (Q96SW2 whole entry): as the sequence (Q96SW2 whole entry) above
T3 sequence (Q16531 whole entry partner): as the sequence (Q16531 whole entry partner) above
The description is as above. In kind it is cell-based. The settings on record: Western blot, 24 hours of compound treatment, compounds tested at 50 nM and 500 nM (concentration for the table not stated).

The target in a further assay is T4, IKZF3 (Homo sapiens, UniProt Q96SW2+Q9UKT9).
T4 construct: effects of the compounds of the present disclosure on the expression of target proteins in cells; endogenous in cells; host or cells: human PBMCs (Milecell Biotechnologies)
T4 sequence (Q9UKT9 whole entry): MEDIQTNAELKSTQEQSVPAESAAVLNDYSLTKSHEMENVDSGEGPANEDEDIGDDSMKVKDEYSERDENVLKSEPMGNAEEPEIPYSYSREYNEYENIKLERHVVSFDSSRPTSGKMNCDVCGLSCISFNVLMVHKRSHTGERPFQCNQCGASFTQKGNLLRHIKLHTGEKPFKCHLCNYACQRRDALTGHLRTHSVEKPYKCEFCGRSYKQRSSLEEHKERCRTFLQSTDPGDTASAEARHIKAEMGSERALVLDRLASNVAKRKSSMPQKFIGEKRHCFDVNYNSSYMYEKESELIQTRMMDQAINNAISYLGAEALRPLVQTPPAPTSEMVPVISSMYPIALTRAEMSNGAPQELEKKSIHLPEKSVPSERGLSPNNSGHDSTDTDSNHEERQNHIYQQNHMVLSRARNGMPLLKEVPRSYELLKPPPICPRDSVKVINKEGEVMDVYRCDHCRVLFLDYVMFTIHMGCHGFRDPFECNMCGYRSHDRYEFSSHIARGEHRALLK
T4 sequence (Q96SW2 whole entry): as the sequence (Q96SW2 whole entry) above
T4 sequence (Q16531 whole entry partner): as the sequence (Q16531 whole entry partner) above
The description is as above. In kind it is cell-based. The settings on record: Western blot, 24 hours of compound treatment, compounds tested at 50 nM and 500 nM (concentration for the table not stated).

A further assay addresses T5, IKZF1 (Homo sapiens, UniProt Q13422+Q96SW2).
T5 construct: effects of the compounds of the present disclosure on the expression of target proteins in cells; endogenous in cells; host or cells: human PBMCs (Milecell Biotechnologies)
The description is as above. The settings on record: Western blot, 24 hours of compound treatment, compounds tested at 50 nM and 500 nM (concentration for the table not stated). In kind it is cell-based.

Assay [1] addresses T6, human Cereblon WT GST-tagged protein (Homo sapiens, UniProt Q96SW2).
T6 construct: purchased CISBIO 64BDCRBNPEH
The experiment in a line: CRBN-binding affinity, HTRF (CEREBLON BINDING kit). The settings on record: for inhibition at 0.5 µM: read-out: Inhibition Rate at 0.5 µM (%); for inhibition at 2 µM: read-out: Inhibition Rate at 2 µM (%).

T5 sequence (Q13422 whole entry): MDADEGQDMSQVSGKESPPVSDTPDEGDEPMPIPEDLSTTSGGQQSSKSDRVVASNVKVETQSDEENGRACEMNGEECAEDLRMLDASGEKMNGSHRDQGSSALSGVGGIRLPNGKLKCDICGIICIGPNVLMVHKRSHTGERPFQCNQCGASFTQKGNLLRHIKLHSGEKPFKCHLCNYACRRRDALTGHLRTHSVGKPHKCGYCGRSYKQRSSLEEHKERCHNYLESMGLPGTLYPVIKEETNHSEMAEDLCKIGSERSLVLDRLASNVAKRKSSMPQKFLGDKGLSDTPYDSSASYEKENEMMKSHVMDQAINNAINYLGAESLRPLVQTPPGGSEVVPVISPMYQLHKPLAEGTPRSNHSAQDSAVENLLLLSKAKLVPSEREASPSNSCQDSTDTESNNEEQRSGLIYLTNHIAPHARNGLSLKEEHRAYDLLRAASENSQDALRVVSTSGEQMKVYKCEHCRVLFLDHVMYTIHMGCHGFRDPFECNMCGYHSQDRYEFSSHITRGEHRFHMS
T5 sequence (Q96SW2 whole entry): as the sequence (Q96SW2 whole entry) above
T5 sequence (Q16531 whole entry partner): as the sequence (Q16531 whole entry partner) above
T6 sequence (Q96SW2 whole entry): as the sequence (Q96SW2 whole entry) above

For `Cc1cccc(N2CCN(Cc3cccc4c3CN(C3CCC(=O)NC3=O)C4=S)CC2)n1` (stereo not shown) [GT-08692, 3-(4-((4-(6-methylpyridin-2-yl)piperazin-1-yl)methyl)-1-thioxoisoindolin-2-yl)piperidine-2,6-dione], the “GSPT1 substrate protein remaining %” value with GSPT1 is on record as “B (80%< substrate protein remaining %≤ 100%)”. For the same molecule, the “Wee1 substrate protein remaining %” value on WEE1 is recorded as “A (0% ≤ substrate protein remaining % ≤ 80%)”. The “CK1α substrate protein remaining %” value on CK1α is reported as “B (80%< substrate protein remaining %≤ 100%)”. At IKZF2, the “IKZF2 substrate protein remaining %” value was “B (80%< substrate protein remaining %≤ 100%)”. Also, the “IKZF3 substrate protein remaining %” value at IKZF3 is given as “B (80%< substrate protein remaining %≤ 100%)”. Moreover, at IKZF1, the “IKZF 1 substrate protein remaining %” value is recorded as “B (80%< substrate protein remaining %≤ 100%)”. Moreover, in assay [1], the inhibition at 0.5 µM fell in the range of 53 to 60% and the inhibition at 2 µM lay within 80 to 100%.

Take `O=C1CCC(N2Cc3c(CN4CCN(c5cccc(Cl)n5)CC4)cccc3C2=S)C(=O)N1` (stereo not shown) [GT-08693, 3-(4-((4-(6-chloropyridin-2-yl)piperazin-1-yl)methyl)-1-thioxoisoindolin-2-yl)piperidine-2,6-dione]: the “GSPT1 substrate protein remaining %” value in the assay on GSPT1 is listed as “B (80%< substrate protein remaining %≤ 100%)”. Also, the “Wee1 substrate protein remaining %” value on WEE1 was “A (0% ≤ substrate protein remaining % ≤ 80%)”. The “CK1α substrate protein remaining %” value on CK1α is listed as “B (80%< substrate protein remaining %≤ 100%)”. Besides, the “IKZF2 substrate protein remaining %” value on IKZF2 is “B (80%< substrate protein remaining %≤ 100%)”. At IKZF3, the “IKZF3 substrate protein remaining %” value is “B (80%< substrate protein remaining %≤ 100%)”. For the same molecule, the “IKZF 1 substrate protein remaining %” value at IKZF1 is “B (80%< substrate protein remaining %≤ 100%)”. Further, in assay [1], the inhibition at 0.5 µM lay in the range of 60 to 80% and the inhibition at 2 µM lay in the range of 80 to 100%.

Regarding `O=C1CCC(N2Cc3c(CN4CCN(c5ccc(Cl)cn5)CC4)cccc3C2=S)C(=O)N1` (stereo not shown) [GT-08694, 3-(4-((4-(5-chloropyridin-2-yl)piperazin-1-yl)methyl)-1-thioxoisoindolin-2-yl)piperidine-2,6-dione], the “GSPT1 substrate protein remaining %” value in the assay on GSPT1 is recorded as “A (0% ≤ substrate protein remaining % ≤ 80%)”. Besides, the “Wee1 substrate protein remaining %” value at WEE1 was “A (0% ≤ substrate protein remaining % ≤ 80%)”. The “CK1α substrate protein remaining %” value on CK1α is listed as “B (80%< substrate protein remaining %≤ 100%)”. Further, on IKZF2, the “IKZF2 substrate protein remaining %” value was “B (80%< substrate protein remaining %≤ 100%)”. For the same molecule, the “IKZF3 substrate protein remaining %” value at IKZF3 was “B (80%< substrate protein remaining %≤ 100%)”. Besides, the “IKZF 1 substrate protein remaining %” value on IKZF1 is given as “B (80%< substrate protein remaining %≤ 100%)”. In assay [1], the inhibition at 0.5 µM was 40 to 53% and the inhibition at 2 µM was 60 to 80%.

As for `O=C1CCC(N2Cc3c(CN4CCN(c5ncccc5Cl)CC4)cccc3C2=S)C(=O)N1` (stereo not shown) [GT-08696, 3-(4-((4-(3-chloropyridin-2-yl)piperazin-1-yl)methyl)-1-thioxoisoindolin-2-yl)piperidine-2,6-dione], the “GSPT1 substrate protein remaining %” value in the assay with GSPT1 is “B (80%< substrate protein remaining %≤ 100%)”. Also, the “Wee1 substrate protein remaining %” value on WEE1 is given as “A (0% ≤ substrate protein remaining % ≤ 80%)”. The “CK1α substrate protein remaining %” value on CK1α is recorded as “B (80%< substrate protein remaining %≤ 100%)”. Besides, the “IKZF2 substrate protein remaining %” value at IKZF2 is listed as “B (80%< substrate protein remaining %≤ 100%)”. In addition, on IKZF3, the “IKZF3 substrate protein remaining %” value is reported as “B (80%< substrate protein remaining %≤ 100%)”. Further, on IKZF1, the “IKZF 1 substrate protein remaining %” value is given as “B (80%< substrate protein remaining %≤ 100%)”. Also, in assay [1], the inhibition at 0.5 µM was in the range of 60 to 80% and the inhibition at 2 µM was in the range of 80 to 100%.

Consider `O=C1CCC(N2Cc3c(CN4CCN(c5ncccc5F)CC4)cccc3C2=S)C(=O)N1` (stereo not shown) [GT-08697, 3-(4-((4-(3-fluoropyridin-2-yl)piperazin-1-yl)methyl)-1-thioxoisoindolin-2-yl)piperidine-2,6-dione], for which the “GSPT1 substrate protein remaining %” value in the assay on GSPT1 is recorded as “B (80%< substrate protein remaining %≤ 100%)”. For the same molecule, the “Wee1 substrate protein remaining %” value on WEE1 was “A (0% ≤ substrate protein remaining % ≤ 80%)”. For the same molecule, on CK1α, the “CK1α substrate protein remaining %” value was “B (80%< substrate protein remaining %≤ 100%)”. Further, the “IKZF2 substrate protein remaining %” value at IKZF2 was “B (80%< substrate protein remaining %≤ 100%)”. Also, the “IKZF3 substrate protein remaining %” value on IKZF3 is given as “B (80%< substrate protein remaining %≤ 100%)”. Besides, the “IKZF 1 substrate protein remaining %” value on IKZF1 was “B (80%< substrate protein remaining %≤ 100%)”. In assay [1], the inhibition at 0.5 µM was in the range of 60 to 80% and the inhibition at 2 µM was 80 to 100%.

`O=C1CCC(N2Cc3c(CN4CCN(c5cccc(F)n5)CC4)cccc3C2=S)C(=O)N1` (stereo not shown) [GT-08698, 3-(4-((4-(6-fluoropyridin-2-yl)piperazin-1-yl)methyl)-1-thioxoisoindolin-2-yl)piperidine-2,6-dione]: in the assay with GSPT1, the “GSPT1 substrate protein remaining %” value was “A (0% ≤ substrate protein remaining % ≤ 80%)”. The “Wee1 substrate protein remaining %” value at WEE1 is recorded as “A (0% ≤ substrate protein remaining % ≤ 80%)”. At CK1α, the “CK1α substrate protein remaining %” value is “B (80%< substrate protein remaining %≤ 100%)”. Further, on IKZF2, the “IKZF2 substrate protein remaining %” value is “B (80%< substrate protein remaining %≤ 100%)”. Also, the “IKZF3 substrate protein remaining %” value on IKZF3 is “B (80%< substrate protein remaining %≤ 100%)”. Also, the “IKZF 1 substrate protein remaining %” value on IKZF1 is “B (80%< substrate protein remaining %≤ 100%)”. Also, in assay [1], the inhibition at 0.5 µM fell in the range of 60 to 80% and the inhibition at 2 µM lay in the range of 80 to 100%.

Take `O=C1CCC(N2Cc3c(CN4CCN(c5ccc(F)cn5)CC4)cccc3C2=S)C(=O)N1` (stereo not shown) [GT-08699, 3-(4-((4-(5-fluoropyridin-2-yl)piperazin-1-yl)methyl)-1-thioxoisoindolin-2-yl)piperidine-2,6-dione]: the “GSPT1 substrate protein remaining %” value in the assay on GSPT1 was “B (80%< substrate protein remaining %≤ 100%)”. At WEE1, the “Wee1 substrate protein remaining %” value is reported as “A (0% ≤ substrate protein remaining % ≤ 80%)”. The “CK1α substrate protein remaining %” value at CK1α was “B (80%< substrate protein remaining %≤ 100%)”. The “IKZF2 substrate protein remaining %” value at IKZF2 is on record as “B (80%< substrate protein remaining %≤ 100%)”. In addition, the “IKZF3 substrate protein remaining %” value at IKZF3 is “B (80%< substrate protein remaining %≤ 100%)”. At IKZF1, the “IKZF 1 substrate protein remaining %” value is “B (80%< substrate protein remaining %≤ 100%)”. In addition, in assay [1], the inhibition at 0.5 µM fell in the range of 53 to 60% and the inhibition at 2 µM was 80 to 100%.

As to `O=C1CCC(N2Cc3c(CN4CCN(c5cccc(C(F)(F)F)n5)CC4)cccc3C2=S)C(=O)N1` (stereo not shown) [GT-08701, 3-(1-thioxo-4-((4-(6-(trifluoromethyl)pyridin-2-yl)piperazin-1-yl)methyl)isoindolin-2-yl)piperidine-2,6-dione], the “GSPT1 substrate protein remaining %” value in the assay on GSPT1 is reported as “B (80%< substrate protein remaining %≤ 100%)”. Also, the “Wee1 substrate protein remaining %” value on WEE1 is “A (0% ≤ substrate protein remaining % ≤ 80%)”. On CK1α, the “CK1α substrate protein remaining %” value is “B (80%< substrate protein remaining %≤ 100%)”. For the same molecule, the “IKZF2 substrate protein remaining %” value on IKZF2 is listed as “B (80%< substrate protein remaining %≤ 100%)”. For the same molecule, the “IKZF3 substrate protein remaining %” value at IKZF3 is “B (80%< substrate protein remaining %≤ 100%)”. The “IKZF 1 substrate protein remaining %” value at IKZF1 was “B (80%< substrate protein remaining %≤ 100%)”. In assay [1], the inhibition at 0.5 µM lay within 40 to 53% and the inhibition at 2 µM was in the range of 80 to 100%.
